{"source": "PubChem BioAssay (NCI)", "assay_in_all_cases": "NCI anticancer screen, dose series, 48 h", "key": {"M14 melanoma": {"tested_on": "M14 melanoma"}, "LOX IMVI melanoma": {"tested_on": "LOX IMVI melanoma"}, "OVCAR-4 ovarian": {"tested_on": "OVCAR-4 ovarian"}, "HCC-2998 colon": {"tested_on": "HCC-2998 colon"}, "MCF7 breast": {"tested_on": "MCF7 breast"}, "OVCAR-8 ovarian": {"tested_on": "OVCAR-8 ovarian"}, "EKVX NSCLC": {"tested_on": "EKVX NSCLC"}, "UACC-257 melanoma": {"tested_on": "UACC-257 melanoma"}, "SNB-19 CNS": {"tested_on": "SNB-19 CNS"}, "KM12 colon": {"tested_on": "KM12 colon"}, "U251 CNS": {"tested_on": "U251 CNS"}, "HS 578T breast": {"tested_on": "HS 578T breast"}, "SF-295 CNS": {"tested_on": "SF-295 CNS"}, "T-47D breast": {"tested_on": "T-47D breast"}, "NCI-H522 lung": {"tested_on": "NCI-H522 lung"}, "COLO 205 colon": {"tested_on": "COLO 205 colon"}, "NCI-H460 lung": {"tested_on": "NCI-H460 lung"}, "SF-539 CNS": {"tested_on": "SF-539 CNS"}, "CCRF-CEM leukemia": {"tested_on": "CCRF-CEM leukemia"}, "HL-60(TB) leukemia": {"tested_on": "HL-60(TB) leukemia"}, "NCI-H23 lung": {"tested_on": "NCI-H23 lung"}, "HT29 colon": {"tested_on": "HT29 colon"}, "A498 renal": {"tested_on": "A498 renal"}, "NCI-H226 lung": {"tested_on": "NCI-H226 lung"}, "MDA-MB-435": {"tested_on": "MDA-MB-435"}, "OVCAR-3 ovarian": {"tested_on": "OVCAR-3 ovarian"}, "SN12C renal": {"tested_on": "SN12C renal"}, "HCT-15 colon": {"tested_on": "HCT-15 colon"}, "SK-MEL-5 melanoma": {"tested_on": "SK-MEL-5 melanoma"}}, "note": "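In this assay, cells in 96-well plates receive the compound at five concentrations for 48 hours. Endpoints are linearly interpolated between the surrounding concentrations. GI50: concentration for 50% inhibition of growth. TGI: total growth inhibition.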"}
{"compound": "CC1CCCCN1CCCNC(=O)N/C(N)=N/c1nc2ccccc2s1", "note": "(stereo not drawn)", "values": [{"measurement": "GI50", "setting": "M14 melanoma", "result": 15.8, "unit": "µM"}, {"measurement": "TGI", "setting": "M14 melanoma", "result": 30.5, "unit": "µM"}, {"measurement": "GI50", "setting": "LOX IMVI melanoma", "result": 13.9, "unit": "µM"}, {"measurement": "TGI", "setting": "LOX IMVI melanoma", "result": 27.7, "unit": "µM"}, {"measurement": "GI50", "setting": "OVCAR-4 ovarian", "result": 63.1, "unit": "µM"}, {"measurement": "TGI", "setting": "OVCAR-4 ovarian", "result": "> 100", "unit": "µM"}, {"measurement": "GI50", "setting": "HCC-2998 colon", "result": 15.2, "unit": "µM"}, {"measurement": "TGI", "setting": "HCC-2998 colon", "result": 29.2, "unit": "µM"}, {"measurement": "GI50", "setting": "MCF7 breast", "result": 15, "unit": "µM"}, {"measurement": "TGI", "setting": "MCF7 breast", "result": 31.7, "unit": "µM"}, {"measurement": "GI50", "setting": "OVCAR-8 ovarian", "result": 27.5, "unit": "µM"}, {"measurement": "TGI", "setting": "OVCAR-8 ovarian", "result": "> 100", "unit": "µM"}, {"measurement": "GI50", "setting": "EKVX NSCLC", "result": 27.9, "unit": "µM"}, {"measurement": "TGI", "setting": "EKVX NSCLC", "result": "> 100", "unit": "µM"}, {"measurement": "GI50", "setting": "UACC-257 melanoma", "result": 15.8, "unit": "µM"}, {"measurement": "TGI", "setting": "UACC-257 melanoma", "result": 30.7, "unit": "µM"}, {"measurement": "GI50", "setting": "SNB-19 CNS", "result": 29.7, "unit": "µM"}, {"measurement": "TGI", "setting": "SNB-19 CNS", "result": "> 100", "unit": "µM"}, {"measurement": "GI50", "setting": "KM12 colon", "result": 27, "unit": "µM"}, {"measurement": "TGI", "setting": "KM12 colon", "result": "> 100", "unit": "µM"}, {"measurement": "GI50", "setting": "U251 CNS", "result": 17, "unit": "µM"}, {"measurement": "TGI", "setting": "U251 CNS", "result": 39.3, "unit": "µM"}, {"measurement": "GI50", "setting": "HS 578T breast", "result": 15.1, "unit": "µM"}, {"measurement": "TGI", "setting": "HS 578T breast", "result": 50.1, "unit": "µM"}, {"measurement": "GI50", "setting": "SF-295 CNS", "result": 16, "unit": "µM"}, {"measurement": "TGI", "setting": "SF-295 CNS", "result": 30.7, "unit": "µM"}, {"measurement": "GI50", "setting": "T-47D breast", "result": 15.4, "unit": "µM"}, {"measurement": "TGI", "setting": "T-47D breast", "result": 39.6, "unit": "µM"}, {"measurement": "GI50", "setting": "NCI-H522 lung", "result": 18.3, "unit": "µM"}, {"measurement": "TGI", "setting": "NCI-H522 lung", "result": 43.8, "unit": "µM"}, {"measurement": "GI50", "setting": "COLO 205 colon", "result": 14, "unit": "µM"}, {"measurement": "TGI", "setting": "COLO 205 colon", "result": 28.2, "unit": "µM"}, {"measurement": "GI50", "setting": "NCI-H460 lung", "result": 19.1, "unit": "µM"}, {"measurement": "TGI", "setting": "NCI-H460 lung", "result": 40.6, "unit": "µM"}, {"measurement": "GI50", "setting": "SF-539 CNS", "result": 15.8, "unit": "µM"}, {"measurement": "TGI", "setting": "SF-539 CNS", "result": 30.1, "unit": "µM"}, {"measurement": "GI50", "setting": "CCRF-CEM leukemia", "result": 19.6, "unit": "µM"}, {"measurement": "TGI", "setting": "CCRF-CEM leukemia", "result": 57.8, "unit": "µM"}, {"measurement": "GI50", "setting": "HL-60(TB) leukemia", "result": 11.5, "unit": "µM"}, {"measurement": "TGI", "setting": "HL-60(TB) leukemia", "result": 33.8, "unit": "µM"}, {"measurement": "GI50", "setting": "NCI-H23 lung", "result": 27, "unit": "µM"}, {"measurement": "TGI", "setting": "NCI-H23 lung", "result": "> 100", "unit": "µM"}, {"measurement": "GI50", "setting": "HT29 colon", "result": 15.3, "unit": "µM"}, {"measurement": "TGI", "setting": "HT29 colon", "result": 46.2, "unit": "µM"}, {"measurement": "GI50", "setting": "A498 renal", "result": 17, "unit": "µM"}, {"measurement": "TGI", "setting": "A498 renal", "result": 38.2, "unit": "µM"}, {"measurement": "GI50", "setting": "NCI-H226 lung", "result": 27.7, "unit": "µM"}, {"measurement": "TGI", "setting": "NCI-H226 lung", "result": "> 100", "unit": "µM"}, {"measurement": "GI50", "setting": "MDA-MB-435", "result": 16.2, "unit": "µM"}, {"measurement": "TGI", "setting": "MDA-MB-435", "result": 30.2, "unit": "µM"}, {"measurement": "GI50", "setting": "OVCAR-3 ovarian", "result": 24, "unit": "µM"}, {"measurement": "TGI", "setting": "OVCAR-3 ovarian", "result": "> 100", "unit": "µM"}, {"measurement": "GI50", "setting": "SN12C renal", "result": 36.7, "unit": "µM"}, {"measurement": "TGI", "setting": "SN12C renal", "result": "> 100", "unit": "µM"}, {"measurement": "GI50", "setting": "HCT-15 colon", "result": 16.4, "unit": "µM"}, {"measurement": "TGI", "setting": "HCT-15 colon", "result": 33.4, "unit": "µM"}, {"measurement": "GI50", "setting": "SK-MEL-5 melanoma", "result": 13.3, "unit": "µM"}, {"measurement": "TGI", "setting": "SK-MEL-5 melanoma", "result": 26.2, "unit": "µM"}]}
